The experiment deals with IL-17A/A. In words: IL-17A/A HEK-Blue cell assay. It is filed as cell-based. Conditions: IL-17A/A inhibition, HEK-Blue IL-17A reporter cell line, IL17A/A 5 ng/mL. As for the experimental part: The HEK-Blue IL-17A reporter cell line (Fisher #NC1408637) was used for cell-based IL-17A/A inhibition assays. Cells were grown and prepared for assays according to the manufacturer's instructions. This cell line consists of HEK 293 cells that were designed to expressed IL-17RA, IL-17RC, and the Act1 adapter molecule, the combination of which, when stimulated by IL-17A/A or IL17A/F activates a NFκB promoter and drives expression of the recombinant Secreted Alkaline Phosphatase (SEAP) gene. Media from the cells is then added to a development reagent (Quanti-Blue Substrate, Fisher #NC9711613), and read at A630.
Compounds were dispensed in DMSO to an empty clear 384-well tissue culture plate in a titration ranging from 10 μM to 27 pM, with DMSO added to every well to a final concentration of 0.1%. Cells were then added to the plate (45 μL/well at a concentration of 280,000 cells/mL). IL17A/A (Genscript #Z03228) or IL17A/F (R&D Systems) was added to the plate to a final concentration of 5 ng/mL and a final well volume of 50 μL. The cells, compound, and IL-17A/A or IL17A/F were then incubated for 20 hours before media was removed for SEAP analysis. The resulting inhibition curve was then analyzed using Dotmatics' integrated 4-parameter fit screening protocol to generate IC50 values.

Where [1] appears, read: HEK-Blue, 20 h, SEAP read at A630, read-out: AA IC50.
[2] abbreviates: 20 hours, SEAP read at A630, read-out: AA IC50.

Molecules are shown by their SMILES. Where two headings read alike, the source gives them in different places.

From US20260265259A1, “SUBSTITUTED 6-IMIDAZOPYRIDAZINE IL-17A MODULATORS AND USES THEREOF” (DICE ALPHA, INC., priority 2023, published 2026) come the findings set out here.

The term IC50 denotes the concentration that inhibits the measured activity by half. As to `O=C(N[C@H](c1cn2nc(C[C@H]3C[C@@H](C(F)(F)F)CNC3=O)c(C3CCOCC3)cc2n1)C1CCC(F)(F)CC1)c1ccnn1C1CC1` [Compound 91], under setting [1], the half-maximal inhibitory concentration (IC50) was less than 0.1 µM. For the compound `O=C(N[C@H](c1cn2nc(C[C@H]3C[C@@H](C(F)(F)F)CNC3=O)c(C3CCOCC3)cc2n1)C1CCC(F)(F)CC1)c1ccnn1C1CC1(F)F` (some centres unmarked) [Compound 92], the half-inhibitory concentration (IC50) under setting [1] was in the range of 0.1 to 1 µM. Consider `O=C(N[C@H](c1cn2nc(C[C@H]3C[C@@H](C(F)(F)F)CNC3=O)c(C3CCOCC3)cc2n1)C1CCC(F)(F)CC1)c1ccnn1C1CC1(F)F` (some centres unmarked) [Compound 93], for which, under setting [2], the IC50 was less than 0.1 µM. As for `CCn1nccc1C(=O)N[C@H](c1cn2nc(C[C@H]3C[C@@H](C(F)(F)F)CNC3=O)c(C3COCCO3)cc2n1)C1CCC(F)(F)CC1` (some centres unmarked) [Compound 94], the concentration for half-maximal inhibition (IC50) under setting [1] fell in the range of 0.1 to 1 µM.

On to `CCn1nccc1C(=O)N[C@H](c1cn2nc(C[C@H]3C[C@@H](C(F)(F)F)CNC3=O)c(C3COCCO3)cc2n1)C1CCC(F)(F)CC1` (some centres unmarked) [Compound 95], for which the IC50 under setting [2] is less than 0.1 µM. Still for that read-out and setting: the figure for `CCn1nccc1C(=O)N[C@H](c1cn2nc(C[C@@H]3C[C@@H](C(F)(F)F)CNC3=O)c(N3CCOCC3C)cc2n1)C1CCC(F)(F)CC1` (some centres unmarked) [Compound 96] is more than 1 µM.

Consider `CCn1nccc1C(=O)N[C@H](c1cn2nc(C[C@@H]3C[C@@H](C(F)(F)F)CNC3=O)c(N3CCOCC3C)cc2n1)C1CCC(F)(F)CC1` (some centres unmarked) [Compound 97], for which the IC50 under setting [2] was less than 0.1 µM.

For the compound `CCn1nccc1C(=O)N[C@H](c1cn2nc(C[C@H]3C[C@@H](C(F)(F)F)CNC3=O)c(N3CC(O)C3)cc2n1)C1CCC(F)(F)CC1` [Compound 98], under setting [1], the half-inhibitory concentration (IC50) fell in the range of 0.1 to 1 µM. For `CCn1nccc1C(=O)N[C@H](c1cn2nc(C[C@H]3C[C@@H](C(F)(F)F)CNC3=O)c(N3CCN(CCOC)CC3)cc2n1)C1CCC(F)(F)CC1` [Compound 99, N—((S)-(4,4-difluorocyclohexyl)(7-(4-(2-methoxyethyl)piperazin-1-yl)-6-(((3R,5R)-2-oxo-5-(trifluoromethyl)piperidin-3-yl)methyl)imidazo[1,2-b]pyridazin-2-yl)methyl)-1-ethyl-1H-pyrazole-5-carboxamide], under setting [1], the IC50 is less than 0.1 µM. The same measure, in the same setting: with `CCn1nccc1C(=O)N[C@H](c1cn2nc(C[C@H]3C[C@@H](C)CNC3=O)c(C3CCOCC3)cc2n1)C1CCC(F)(F)CC1` [Compound 100, N—((1S)-(4,4-difluorocyclohexyl)(6-(((5R)-5-methyl-2-oxopiperidin-3-yl)methyl)-7-(tetrahydro-2H-pyran-4-yl)imidazo[1,2-b]pyridazin-2-yl)methyl)-1-ethyl-1H-pyrazole-5-carboxamide] the figure was 0.1 to 1 µM; with `CCn1nccc1C(=O)N[C@H](c1cn2nc(C[C@@H]3C[C@@H](C)CNC3=O)c(C3CCOCC3)cc2n1)C1CCC(F)(F)CC1` [Compound 101, N—((1S)-(4,4-difluorocyclohexyl)(6-(((5R)-5-methyl-2-oxopiperidin-3-yl)methyl)-7-(tetrahydro-2H-pyran-4-yl)imidazo[1,2-b]pyridazin-2-yl)methyl)-1-ethyl-1H-pyrazole-5-carboxamide], less than 0.1 µM. Same read-out and setting: the figure for `CCn1nccc1C(=O)N[C@H](c1cn2nc(C[C@H]3C[C@H](C)CNC3=O)c(C3CCOCC3)cc2n1)C1CCC(F)(F)CC1` [Compound 102, N—((1S)-(4,4-difluorocyclohexyl)(6-(((5S)-5-methyl-2-oxopiperidin-3-yl)methyl)-7-(tetrahydro-2H-pyran-4-yl)imidazo[1,2-b]pyridazin-2-yl)methyl)-1-ethyl-1H-pyrazole-5-carboxamide] is 0.1 to 1 µM. On to `CCn1nccc1C(=O)N[C@H](c1cn2nc(C[C@@H]3C[C@H](C)CNC3=O)c(C3CCOCC3)cc2n1)C1CCC(F)(F)CC1` [Compound 103, N—((1S)-(4,4-difluorocyclohexyl)(6-(((5S)-5-methyl-2-oxopiperidin-3-yl)methyl)-7-(tetrahydro-2H-pyran-4-yl)imidazo[1,2-b]pyridazin-2-yl)methyl)-1-ethyl-1H-pyrazole-5-carboxamide], for which the IC50 under setting [1] was less than 0.1 µM. Regarding `CCn1nccc1C(=O)N[C@H](c1cn2nc(C[C@H]3C[C@@H](C(F)(F)F)CNC3=O)c(N3CCN4CCOC[C@@H]4C3)cc2n1)C1CCC(F)(F)CC1` [Compound 104, N—((S)-(4,4-difluorocyclohexyl)(7-((S)-hexahydropyrazino[2,1-c][1,4]oxazin-8(1H)-yl)-6-(((3R,5R)-2-oxo-5-(trifluoromethyl)piperidin-3-yl)methyl)imidazo[1,2-b]pyridazin-2-yl)methyl)-1-ethyl-1H-pyrazole-5-carboxamide], the 50% inhibitory concentration (IC50) under setting [1] was less than 0.1 µM.

For `CCn1nccc1C(=O)N[C@H](c1cn2nc(C[C@H]3C[C@@H](C(F)(F)F)CNC3=O)c(CN3CCC(F)(F)C3)cc2n1)C1CCC(F)(F)CC1` [Compound 105, N—((S)-(4,4-difluorocyclohexyl)(7-((3,3-difluoropyrrolidin-1-yl)methyl)-6-(((3R,5R)-2-oxo-5-(trifluoromethyl)piperidin-3-yl)methyl)imidazo[1,2-b]pyridazin-2-yl)methyl)-1-ethyl-1H-pyrazole-5-carboxamide], the half-maximal inhibitory concentration (IC50) under setting [1] was less than 0.1 µM. Regarding `CCn1nccc1C(=O)N[C@H](c1cn2nc(C[C@H]3C[C@@H](C(F)(F)F)CNC3=O)c(CN3CCCC3)cc2n1)C1CCC(F)(F)CC1` [Compound 106, N—((S)-(4,4-difluorocyclohexyl)(6-(((3R,5R)-2-oxo-5-(trifluoromethyl)piperidin-3-yl)methyl)-7-(pyrrolidin-1-ylmethyl)imidazo[1,2-b]pyridazin-2-yl)methyl)-1-ethyl-1H-pyrazole-5-carboxamide], under setting [1], the 50% inhibitory concentration (IC50) is less than 0.1 µM. With `CCn1nccc1C(=O)N[C@H](c1cn2nc(C[C@H]3C[C@@H](C(F)(F)F)CNC3=O)c(CN3CCCCC3)cc2n1)C1CCC(F)(F)CC1` [Compound 107, N—((S)-(4,4-difluorocyclohexyl)(6-(((3R,5R)-2-oxo-5-(trifluoromethyl)piperidin-3-yl)methyl)-7-(piperidin-1-ylmethyl)imidazo[1,2-b]pyridazin-2-yl)methyl)-1-ethyl-1H-pyrazole-5-carboxamide], the half-inhibitory concentration (IC50) under setting [1] is less than 0.1 µM. Same read-out and setting: the figure for `CCn1nccc1C(=O)N[C@H](c1cn2nc(C[C@H]3C[C@@H](C(F)(F)F)CNC3=O)c(CN3CCOCC3)cc2n1)C1CCC(F)(F)CC1` [Compound 108, N—((S)-(4,4-difluorocyclohexyl)(7-(morpholinomethyl)-6-(((3R,5R)-2-oxo-5-(trifluoromethyl)piperidin-3-yl)methyl)imidazo[1,2-b]pyridazin-2-yl)methyl)-1-ethyl-1H-pyrazole-5-carboxamide] is less than 0.1 µM; for `CCn1nccc1C(=O)N[C@H](c1cn2nc(C[C@H]3C[C@@H](C(F)(F)F)CNC3=O)c(CN3CC(F)(F)C3)cc2n1)C1CCC(F)(F)CC1` [Compound 109, N—((S)-(7-((3,3-difluoroazetidin-1-yl)methyl)-6-(((3R,5R)-2-oxo-5-(trifluoromethyl)piperidin-3-yl)methyl)imidazo[1,2-b]pyridazin-2-yl)(4,4-difluorocyclohexyl)methyl)-1-ethyl-1H-pyrazole-5-carboxamide] it is less than 0.1 µM. In the case of `CCn1nccc1C(=O)N[C@H](c1cn2nc(C[C@H]3C[C@@H](C(F)(F)F)CNC3=O)c([C@@H](C)N(C)CC(F)(F)F)cc2n1)C1CCC(F)(F)CC1` [Compound 110, N-((1S)-(4,4-difluorocyclohexyl)(7-(1-(methyl(2,2,2-trifluoroethyl)amino)ethyl)-6-(((3R,5R)-2-oxo-5-(trifluoromethyl)piperidin-3-yl)methyl)imidazo[1,2-b]pyridazin-2-yl)methyl)-1-ethyl-1H-pyrazole-5-carboxamide], the 50% inhibitory concentration (IC50) under setting [1] is less than 0.1 µM. Still for that read-out and setting: the figure for `CCn1nccc1C(=O)N[C@H](c1cn2nc(C[C@H]3C[C@@H](C(F)(F)F)CNC3=O)c(CN(C)C)cc2n1)C1CCC(F)(F)CC1` [Compound 111, N—((S)-(4,4-difluorocyclohexyl)(7-((dimethylamino)methyl)-6-(((3R,5R)-2-oxo-5-(trifluoromethyl)piperidin-3-yl)methyl)imidazo[1,2-b]pyridazin-2-yl)methyl)-1-ethyl-1H-pyrazole-5-carboxamide] is less than 0.1 µM. Same read-out and setting: the figure for `CCn1nccc1C(=O)N[C@H](c1cn2nc(C[C@H]3C[C@@H](C(F)(F)F)CNC3=O)c(CNC)cc2n1)C1CCC(F)(F)CC1` [Compound 112, N—((S)-(4,4-difluorocyclohexyl)(7-((methylamino)methyl)-6-(((3R,5R)-2-oxo-5-(trifluoromethyl)piperidin-3-yl)methyl)imidazo[1,2-b]pyridazin-2-yl)methyl)-1-ethyl-1H-pyrazole-5-carboxamide] is less than 0.1 µM. Regarding `CCn1nccc1C(=O)N[C@H](c1cn2nc(C[C@H]3C[C@@H](C(F)(F)F)CNC3=O)c(CN(C)C3CC3)cc2n1)C1CCC(F)(F)CC1` [Compound 113, N—((S)-(7-((cyclopropyl(methyl)amino)methyl)-6-(((3R,5R)-2-oxo-5-(trifluoromethyl)piperidin-3-yl)methyl)imidazo[1,2-b]pyridazin-2-yl)(4,4-difluorocyclohexyl)methyl)-1-ethyl-1H-pyrazole-5-carboxamide], the IC50 under setting [1] is less than 0.1 µM.
